This note sets out measurements from ChEMBL document CHEMBL5321229, “Conformationally locked sugar derivatives and analogues as potential neuraminidase inhibitors” (Eur J Med Chem, 2023).

By IC50 is commonly meant the midpoint of a concentration-inhibition curve. Read a high IC50 as lower potency.

The assay addresses Neuraminidase (Influenza A virus (A/Memphis/1/1971(H3N2)), UniProt P03471, E119V). Nature of the assay: Inhibition of influenza A virus H3N2 (A/Moscow/10/99) harboring E119V mutant neuraminidase using MUNANA as substrate preincubated for 30 mins followed by substrate addition by fluorescence-based assay.

For `CCC(CC)O[C@@H]1C=C(C(=O)O)C[C@H](n2nncc2-c2cccc(N)c2)[C@H]1NC(C)=O`, the midpoint of inhibition, the IC50, lay at 790 nM.
